Molecular target: hQC (Homo sapiens, UniProt Q16769)
Assay: Fluorometric (fluorescent) assay of hQC inhibition, IC50
Type: biochemical
Details: hQC inhibition; read-out: IC50
Protocol: All compounds were immediately tested regarding their activity as hQC inhibitors.
The purity of the compounds was determined by HPLC-MS. The IC50 value against hQC was measured using the fluorescent assay.
All measurements were performed with a BioAssay Reader HTS-7000Plus for microplates (Perkin Elmer) at 30° C. QC activity was evaluated fluorometrically using H-Gln-βNA. The samples consisted of 0.2 mM fluorogenic substrate, 0.25 U pyroglutamyl aminopeptidase (Unizyme, Horsholm, Denmark) in 0.2 M Tris/HCl, pH 8.0 containing 20 mM EDTA and an appropriately diluted aliquot of QC in a final volume of 250 μl. Excitation/emission wavelengths were 320/410 nm. The assay reactions were initiated by addition of glutaminyl cyclase. QC activity was determined from a standard curve of β-naphthylamine under assay conditions. One unit is defined as the amount of QC catalyzing the formation of 1 μmol pGlu-βNA from H-Gln-βNA per minute under the described conditions.
In a second fluorometric assay, QC was activity determined using H-Gln-AMC as substrate. Reactions were carried out at 30° C. utilizing the NOVOStar reader for microplates (BMG labtechnologies). The samples consisted of varying concentrations of the fluorogenic substrate, 0.1 U pyroglutamyl aminopeptidase (Qiagen) in 0.05 M Tris/HCl, pH 8.0 containing 5 mM EDTA and an appropriately diluted aliquot of QC in a final volume of 250 μl. Excitation/emission wavelengths were 380/460 nm. The assay reactions were initiated by addition of glutaminyl cyclase. QC activity was determined from a standard curve of 7-amino-4-methylcoumarin under assay conditions. The kinetic data were evaluated using GraFit sofware.
For inhibitor testing, the sample composition was the same as described above, except of the putative inhibitory compound added. For a rapid test of QC-inhibition, samples contained 4 mM of the respective inhibitor and a substrate concentration at 1 KM. For detailed investigations of the inhibition and determination of Ki-values, influence of the inhibitor on the auxiliary enzymes was investigated first. […] The inhibitory constant was evaluated by fitting the set of progress curves to the general equation for competitive inhibition using GraFit software.

Sequence of hQC (Q16769 29-361): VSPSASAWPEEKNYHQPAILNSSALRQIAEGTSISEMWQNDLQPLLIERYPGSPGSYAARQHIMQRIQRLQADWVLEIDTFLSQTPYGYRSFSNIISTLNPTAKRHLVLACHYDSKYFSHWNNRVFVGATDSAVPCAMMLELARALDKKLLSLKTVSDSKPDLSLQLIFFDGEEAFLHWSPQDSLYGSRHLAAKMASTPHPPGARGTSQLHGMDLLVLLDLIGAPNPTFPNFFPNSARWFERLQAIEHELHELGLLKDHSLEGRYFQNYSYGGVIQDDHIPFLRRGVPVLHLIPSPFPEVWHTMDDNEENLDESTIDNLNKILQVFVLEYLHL

IC50 [µM] | SMILES
5.8 | CCOC(=O)C1CCCCC1n1nnnc1C(Nc1ccc2[nH]cnc2c1)c1cccc(C(=O)OC)c1 (centres unmarked) [compound 195, 3-{(1H-Benzoimidazol-5-ylamino)-[1-(2-ethoxycarbonyl-cyclohexyl)-1H-tetrazol-5-yl]-methyl}-benzoic acid methyl ester]
8.5 | CCOC(=O)C1CCCCC1n1nnnc1C(Nc1ccc2[nH]cnc2c1)c1ccccc1OC (centres unmarked) [compound 183]
3.1 | Brc1cc(Br)cc(C(Nc2ccc3[nH]cnc3c2)c2nnnn2C2CCCCC2)c1 (centres unmarked) [compound 175, (1H-Benzoimidazol-5-yl)-[(1-cyclohexyl-1H-tetrazol-5-yl)-(3,5-dibromo-phenyl)-methyl]-amine]
8.5 | CCOC(=O)C1CCCCC1n1nnnc1C(Nc1ccc2[nH]cnc2c1)c1c[nH]c2cc(C)ccc12 (centres unmarked) [compound 196]
6.7 | CSc1ccc(C(Nc2ccc3[nH]cnc3c2)c2nnnn2CC2CCCO2)cc1 (centres unmarked) [compound 140, (1H-Benzoimidazol-5-yl)-{(4-methylsulfanyl-phenyl)-[1-(tetrahydro-furan-2-ylmethyl)-1H-tetrazol-5-yl]-methyl}-amine]

The remaining lines, values behind:

SMILES | IC50 [µM]
OCc1ccc(C(Nc2ccc3[nH]cnc3c2)c2nnnn2Cc2ccc(Cl)cc2)o1 (centres unmarked) [compound 121, (5-{(1H-Benzoimidazol-5-ylamino)-[1-(4-chloro-benzyl)-1H-tetrazol-5-yl]-methyl}-furan-2-yl)-methanol] | 4.9
CCc1ccc(C(Nc2ccc3[nH]cnc3c2)c2nnnn2C2CCCCC2)cc1 (centres unmarked) [compound 198, (1H-Benzoimidazol-5-yl)-[(1-cyclohexyl-1H-tetrazol-5-yl)-(4-ethyl-phenyl)-methyl]-amine] | 4.9
O=C(Cn1nnnc1C(Nc1ccc2[nH]cnc2c1)c1cccs1)N1CCc2ccccc2C1 (centres unmarked) [compound 120, 2-{5-[(1H-Benzoimidazol-5-ylamino)-thiophen-2-yl-methyl]-tetrazol-1-yl}-1-(3,4-dihydro-1H-isoquinolin-2-yl)-ethanone] | 8.5
Cc1cc(C(Nc2ccc3[nH]cnc3c2)c2nnnn2CC2CCCO2)cc(C)c1O (centres unmarked) [compound 131, 4-{(1H-Benzoimidazol-5-ylamino)-[1-(tetrahydro-furan-2-ylmethyl)-1H-tetrazol-5-yl]-methyl}-2,6-dimethyl-phenol] | 6.7
Cc1cc(C)cc(C(Nc2ccc3[nH]cnc3c2)c2nnnn2CC(=O)N2CCc3ccccc3C2)c1 (centres unmarked) [compound 137, 2-{5-[(1H-Benzoimidazol-5-ylamino)-(3,5-dimethyl-phenyl)-methyl]-tetrazol-1-yl}-1-(3,4-dihydro-1H-isoquinolin-2-yl)-ethanone] | 4.9
O=C1CCCN1CCCn1nnnc1C(Nc1ccc2[nH]cnc2c1)c1ccc(Br)cc1 (centres unmarked) [compound 194, 1-(3-{5-[(1H-Benzoimidazol-5-ylamino)-(4-bromo-phenyl)-methyl]-tetrazol-1-yl}-propyl)-pyrrolidn-2-one] | 8.5
Brc1cc(Br)cc(C(Nc2ccc3[nH]cnc3c2)c2nnnn2-c2ccc3c(c2)OCCO3)c1 (centres unmarked) [compound 179, (1H-Benzoimidazol-5-yl)-{(3,5-dibromo-phenyl)-[1-(2,3-dihydro-benzo[1,4]dioxin-6-yl)-1H-tetrazol-5-yl]-methyl}-amine] | 4
CCOC(=O)C1CCCCC1n1nnnc1C(Nc1ccc2[nH]cnc2c1)c1cc(C)cc(C)c1 (centres unmarked) [compound 157] | 5.8
Fc1cc(C(Nc2ccc3[nH]cnc3c2)c2nnnn2CCc2cccs2)ccc1Cl (centres unmarked) [compound 207, (1H-Benzoimidazol-5-yl)-{(4-chloro-3-fluoro-phenyl)-[1-(2-thiophen-2-yl-ethyl)-1H-tetrazol-5-yl]-methyl}-amine] | 4
Brc1cc(Br)cc(C(Nc2ccc3[nH]cnc3c2)c2nnnn2CCCCc2ccccc2)c1 (centres unmarked) [compound 189, (1H-Benzoimidazol-5-yl)-{(3,5-dibromo-phenyl)-[1-(4-phenyl-butyl)-1H-tetrazol-5-yl]-methyl}-amine] | 3.1
CC(C)(C)n1nnnc1C(Nc1ccc2[nH]cnc2c1)c1csc2ccccc12 (centres unmarked) [compound 123] | 8.5

Same assay, conditions: read-out: IC50

IC50 [µM] | SMILES
4 | C=CCn1nnnc1C(NCCCn1ccnc1)c1ccc2cccc(O)c2n1 (centres unmarked) [compound 45, 2-[(1-Allyl-1H-tetrazol-5-yl)-(3-imidazol-1-yl-propylamino)-methyl]-quinolin-8-ol]
4 | CC(C)(C)OC(=O)Cn1nnnc1C(Nc1ccc2[nH]cnc2c1)c1ccc(Cl)c(F)c1 (centres unmarked) [compound 91, {5-[(1H-Benzoimidazol-5-ylamino)-(4-chloro-3-fluoro-phenyl)-methyl]-tetrazol-11-yl}-acetic acid tert-butyl ester]
2.2 | COc1ccc(C(Nc2ccc3[nH]cnc3c2)c2nnnn2Cc2ccc(Cl)cc2)c(C)c1 (centres unmarked) [compound 75, (1H-Benzoimidazol-5-yl)-[[1-(4-chloro-benzyl)-1H-tetrazol-5-yl]-(4-methoxy-2-methyl-phenyl)-methyl]-amine]
2.2 | COC(=O)Cn1nnnc1C(NCCCn1ccnc1)c1ccc2ccccc2n1 (centres unmarked) [compound 55, {5-[(3-Imidazol-1-yl-propylamino)-quinolin-2-yl-methyl]-tetrazol-1-yl}-acetic methyl ester]
4.9 | Fc1cc(C(Nc2ccc3[nH]cnc3c2)c2nnnn2C2CCCCC2)ccc1Cl (centres unmarked) [compound 107, (1H-Benzoimidazol-5-yl)-[(4-chloro-3-fluoro-phenyl)-(1-cyclohexyl-1H-tetrazol-5-yl)-methyl]-amine]
6.7 | c1ccc2oc(C(NCCCn3ccnc3)c3nnnn3C[C@@H]3CCCO3)cc2c1 (stereo partly drawn) [compound 15, (Benzofuran-2-yl-{1-[(S)-1-(tetrahydro-furan-2-yl)methyl]-1H-tetrazol-5-yl}-methyl)-(3-imidazol-1-yl-propyl)-amine]
1.3 | COC(=O)c1cccc(C(Nc2ccc3[nH]cnc3c2)c2nnnn2Cc2ccc(Cl)cc2)c1 (centres unmarked) [compound 85, 3-{(1H-Benzoimidazol-5-ylamino)-[1-(4-chloro-benzyl)-1H-tetrazol-5-yl]-methyl}-benzoic acid methyl ester]
7.6 | COCCn1nnnc1C(NCCCn1ccnc1)c1cc(C)c(C)cc1C (centres unmarked) [compound 43, (3-Imidazol-1-yl-propyl)-[[1-(2-methoxy-ethyl)-1H-tetrazol-5-yl]-(2,4,5-trimethyl-phenyl)-methyl]-amine]
7.6 | COCCCn1nnnc1C(NCCCn1ccnc1)c1ccc(Cl)c(Cl)c1 (centres unmarked) [compound 32, {(3,4-Dichloro-phenyl)-[1-(3-methoxy-propyl)-1H-tetrazol-5-yl]-methyl}-(3-imidazol-1-yl-propyl)-amine]

The remaining lines, values behind:

SMILES | IC50 [µM]
c1nc2cc(NC(c3ccc4nsnc4c3)c3nnnn3CC3CCCO3)ccc2[nH]1 (centres unmarked) [compound 105] | 4.9
CCOC(=O)C1CC1C(Nc1ccc2[nH]cnc2c1)c1nnnn1CCc1cccs1 (centres unmarked) [compound 104] | 4
CC1=CCCC[C@@H]1C(NCCCn1ccnc1)c1nnnn1C1CCCC1 (stereo partly drawn) [compound 27, [(1-Cyclopentyl-1H-tetrazol-5-yl)-((S)-2-methyl-cyclohex-2-enyl)-methyl]-(3-imidazol-1-yl-propyl)-amine] | 6.7
COCCn1nnnc1C(NCCCn1ccnc1)c1ccc2ccccc2n1 (centres unmarked) [compound 42, (3-Imidazol-1-yl-propyl)-{[1-(2-methoxy-ethyl)-1H-tetrazol-5-yl]-quinolin-2-yl-methyl}-amine] | 5.8
CC1=CCCC[C@@H]1C(NCCCn1ccnc1)c1nnnn1Cc1ccc(Cl)cc1 (stereo partly drawn) [compound 8, [[1-(4-Chloro-benzyl)-1H-tetrazol-5-yl]-((S)-2-methyl-cyclohex-2-enyl)-methyl]-(3-imidazol-1-yl-propyl)-amine] | 4
Fc1ccc2c(C(Nc3ccc4[nH]cnc4c3)c3nnnn3C3CCCCC3)c[nH]c2c1 (centres unmarked) [compound 81, (1H-Benzoimidazol-5-yl)-[(1-cyclohexyl-1H-tetrazol-5-yl)-(6-fluoro-1H-indol-3-yl)-methyl]-amine] | 3.1
Cc1ccc(C(C)CC(Nc2ccc3[nH]cnc3c2)c2nnnn2C2CCCCC2)o1 (centres unmarked) [compound 96, (1H-Benzoimidazol-5-yl)-[1-(1-cyclohexyl-1H-tetrazol-5-yl)-3-(5-methyl-furan-2-yl)-butyl]-amine] | 4.9
CC(CC(Nc1ccc2[nH]cnc2c1)c1nnnn1CC1CCCO1)c1ccccc1 (centres unmarked) [compound 97, (1H-Benzoimidazol-5-yl)-{3-phenyl-1-[1-(tetrahydro-furan-2-ylmethyl)-1H-tetrazol-5-yl]-butyl}-amine] | 4
Cn1nnnc1C(NCCCn1ccnc1)c1ccc2cccc(O)c2n1 (centres unmarked) [compound 29, 2-[(3-imidazol-1-yl-propylamino)-(1-methyl-1H-tetrazol-5-yl)-methyl]-quinolin-8-ol] | 3.1
CC(C)(C)n1nnnc1C(NCCCn1ccnc1)[C@@H]1CCC=CO1 (stereo in doubt) [compound 61, [(S)-(1-tert-Butyl-1H-tetrazol-5-yl)-3,4-dihydro-2H-pyran-2-yl-methyl]-(3-imidazol-1-yl-propyl)-amine] | 6.7
